This is an account of results in publication PMC3832545 (PLoS ONE, 2013).

Marks after values point to notes of the source that are not given here.

One series relates to MC38 cell allografts. In words: Growth of MC38 cell tumor allografts in mice with diet-induced obesity. The following applies: 600 nmol/kg sc twice daily; for Tumor end volume, mean / Tumor end volume, fold change relative to vehicle: day 14; for AUC tumor growth, mean / AUC tumor growth, fold change relative to vehicle: day 0 to 14. It is filed as in vivo, mouse. How it is done: We focused on different endpoints in these animal experiments and monitored tumor growth in all experiments, see Table 1. The animal experiments were performed as described recently. […] Animal care and treatments were conducted in accordance with established guidelines and protocols approved by the Lady Davis Institute (protocol # 5951) and McGill University's Animal Ethics Committee. Mice were housed one mouse per cage with ad libitum access to tap water and high- or low fat diet, respectively, throughout the studies. The temperature in the animal rooms was maintained at 20-25°C with a light/dark cycle of 14/10 hours. Mice were acclimatized for 7-10 days before experimental procedures were initiated. At experimental day 0, 2.0×10^5 (experiment A) or 5.0×10^5 (all other experiments) MC38 cells, suspended in 100 μl phosphate-buffered saline (PBS), were injected subcutaneously (sc) in the right flank of the mice. […] The size of the tumor allografts was measured three times per week and the volume calculated using the following formula: length × width^2 × 0.52. Based on the tumor volume data for each mouse, we calculated the area under the tumor growth curves (tumor growth AUC). At termination of the experiments, mice were anesthetized with isoflurane. Blood was collected by cardiac puncture and immediately after euthanasia by cervical dislocation, samples of the liver, colon, gastrocnemius muscle and the MC38 cell tumor allografts were dissected out and snap-frozen in liquid nitrogen for later preparation of tissue lysate. The effect of treatment on tumor growth in each of the five animal experiments were analysed in a one-way ANOVA followed by pairwise comparison of each treatment with vehicle using multiple t-tests with Dunnetts correction for each of the two tumor growth endpoints; tumor end volume and area under the tumor growth curves (tumor growth AUC). The results of this analysis for each experiment, i.e., mean values for each treatment, 95% confidence intervals and the fold change of each treatment relative to vehicle, are shown in Table 3. To examine treatment-related effects on tumor growth across all five animal experiments, we for each endpoint (tumor end volume and tumor growth AUC) pooled all data in one dataset and analysed them in a mixed linear model with treatment as a fixed explanatory variable and experiment as a random effect. No significant interaction between treatment and experiment was found for the any of the two outcomes (tumor end volume and tumor growth AUC). To further explore the differences between treatments, pairwise comparisons of each type of treatment were done using multiple t-test with Bonferonni correction. No outliers were observed among the 131 observations of tumor end volume, whereas one outlier was identified among the 131 observations of tumor growth AUC.

Series [1] in a line: Plasma concentrations (pharmacokinetics) after sc injection in DIO-mice. The class given is in vivo, mouse. How it is done: The animal experiments were performed as described recently. […] Animal care and treatments were conducted in accordance with established guidelines and protocols approved by the Lady Davis Institute (protocol # 5951) and McGill University's Animal Ethics Committee. Mice were housed one mouse per cage with ad libitum access to tap water and high- or low fat diet, respectively, throughout the studies. […] The size of the tumor allografts was measured three times per week and the volume calculated using the following formula: length × width^2 × 0.52. Based on the tumor volume data for each mouse, we calculated the area under the tumor growth curves (tumor growth AUC). At termination of the experiments, mice were anesthetized with isoflurane. Blood was collected by cardiac puncture and immediately after euthanasia by cervical dislocation, samples of the liver, colon, gastrocnemius muscle and the MC38 cell tumor allografts were dissected out and snap-frozen in liquid nitrogen for later preparation of tissue lysate. Before experiments were initiated, the systemic levels of mouse insulin were measured using a Rat/Mouse Insulin ELISA kit (Millipore Corp., Bilerica, MA, USA), according to manufacturer's instructions. […] Mouse C-peptide was assayed with Rat/Mouse C-peptide 2 ELISA kit (Millipore), according to manufacturer's instructions. […] At termination of experiments whole blood was collected in EDTA-coated tubes (BD Biosciences) by cardiac puncture. […] Mouse C-peptide was assayed with Rat/Mouse C-peptide 2 ELISA kit (Millipore) according to manufacturer's instructions. […] The lower detection limit of the assay was 2 pM. […] Plate wells were coated with a mouse monoclonal anti-insulin antibody OXI005 (Novo Nordisk A/S) coupled to acceptor beads. […] Ten μl of this dilution were added to the wells. […] The lower detection limit of the assay was 233 pM.

In a further series the test system is MCF-7 cells. In words: MTT cell proliferation assay, MCF-7 cells. The class given is cell-based, human. The following applies: 24 h, 0.1% (v/v) serum, 0.001 to 1000 nM, three independent experiments with four replicates. How it is done: Effect of test compounds on proliferation was assessed with 3-(4,5-dimethylthiazol-2-yl)-2,5-diphenyl tetrazolium bromide (MTT) assays, essentially as described previously. In brief, MC38 cells were plated in 96-well plates (5,000 cells per well) in growth medium. […] Data for relative cell numbers from the three repeated experiments, each with four replicate samples per condition, were then used to fit dose-response curves using GraphPad Prism version 6.0 (GraphPad Software Inc., La Jolla, CA, USA). Cell proliferation experiments were done with MCF-7 cells as described for MC38 cells, except that 20,000 cells were plated per well. See Materials S1 and Figure S1 for detailed supplementary information regarding cell proliferation experiments.
In initial tests the association between number of cells and absorbance at 570 nm measured in an MTT assay was examined after incubation of MC38 cells with MTT for 3 h, 3 h after plating different number of cells per well, i.e., the total incubation period was 6 h. As expected there was a highly linear relationship between absolute number of cells and the measured absorbance (Figure S1). […] After incubation for 1 day cells were rinsed in PBS (room temperature) and then starvation medium was added. […] Control samples were treated with starvation medium only. After treatment for 21 h, 10 µl stock solution of MTT dissolved in PBS (5.0 mg/ml) was added to each well, and incubation was continued for 3 h so treatment with test compounds in total lasted 24 h. At the end of the treatment period medium with test compounds was removed and formazan crystals were suspended by adding 100 µl 0.04 M HCl dissolved in isopropanol to each well and absorbance was thereafter read at 570 nm using a Emax PC plate reader (Molecular Devices LLC, Sunnyvale, CA, USA). Each treatment was done with four replicate samples and three independent experiments were performed. In each experiment the absorbance was normalized to the mean absorbance in the untreated control samples. […]

Series [2] can be described thus: Blood glucose (pharmacodynamics) after sc injection in DIO-mice. The following applies: 600 nmol/kg sc, n = 8. The class given is in vivo, mouse. The text has this:
Blood was collected by puncture of the saphenous vein and blood glucose measured using a OneTouch Ultra Glucometer (LifeScan, Inc., Milpitas, CA, USA).

Setting [3] is: all experiments (A–E) pooled, mixed linear model, DIO-mice.
[4] abbreviates: all experiments (A–E) pooled, mixed linear model, one outlier excluded, DIO-mice.
[5] abbreviates: experiment C, n = 6, 5.0×10^5 MC38 cells sc, DIO-mice.
Setting [6] is: experiment D, n = 8–10, 5.0×10^5 MC38 cells sc, DIO-mice.
Where [7] appears, read: experiment A, n = 6, 2.0×10^5 MC38 cells sc, DIO-mice.
Where [8] appears, read: experiment A, n = 6, 2.0×10^5 MC38 cells sc, male C57BL/6 DIO-mice.
Where [9] appears, read: experiment B, n = 6, 5.0×10^5 MC38 cells sc, DIO-mice.
Setting [10] is: experiment E, n = 10, 5.0×10^5 MC38 cells sc, DIO-mice.

Regarding “IGF-1: recombinant human IGF-1 (Increlex, IPSEN Pharma GmbH)”, the “Tumor end volume, mean” value was found to be 686.3 mm^3 in the series on MC38 cell allografts (setting [3]), 724.6 mm^3 with MC38 cell allografts (setting [5]) and 616.0 mm^3 in the series on MC38 cell allografts (setting [6]). Besides, the “AUC tumor growth, mean” value in the series on MC38 cell allografts (setting [4]) is 2499.8 day × mm^3; with MC38 cell allografts (setting [5]), 2596.8 day × mm^3; in the series on MC38 cell allografts (setting [6]) it was 2207.1 day × mm^3. For the same substance, the “Plasma elimination half-life (t½)” value in series [1] (mouse, in vivo, sc) was “approximately 70 min”. In addition, in the series on MCF-7 cells, the “Ranking according to mitogenic potency (MTT assay)” value (shortened to “Ranking according”) is listed as “IGF-1>X10>HI”. For the same substance, in series [2], the “Effect on blood glucose” value was “rapidly lowered blood glucose”. In addition, in series [2], the “Time until blood glucose returned to basal levels” value (“Time until blood glucose returned” for short) lay in the range of 3 to 4 h.
Take human insulin [HI]: the “Tumor end volume, mean” value was 409.5 mm^3 in the series with MC38 cell allografts (setting [3]); 439.3 mm^3 with MC38 cell allografts (setting [8]); 434.3 mm^3 in the series with MC38 cell allografts (setting [9]); 374.5 mm^3 in the series on MC38 cell allografts (setting [5]); 397.7 mm^3 with MC38 cell allografts (setting [6]); 365.6 mm^3 in the series on MC38 cell allografts (setting [10]). In addition, the “AUC tumor growth, mean” value is given as 1542.1 day × mm^3 in the series with MC38 cell allografts (setting [4]); 1539.6 day × mm^3 with MC38 cell allografts (setting [7]); 1725.4 day × mm^3 in the series on MC38 cell allografts (setting [9]); 1309.5 day × mm^3 in the series with MC38 cell allografts (setting [5]); 1483.0 day × mm^3 in the series with MC38 cell allografts (setting [6]); 1421.9 day × mm^3 with MC38 cell allografts (setting [10]). Also, in series [1] (DIO-mice, 600 nmol/kg sc, estimated from plasma concentrations […] min, 1 h and 6 h after injection), the “Plasma elimination half-life (t½)” value is recorded as “approximately 30 min”. Besides, in series [1] (DIO-mice, 600 nmol/kg sc, plasma, LOCI / wash-LOCI / ELISA), the “Cmax (plasma)” value is listed as “approximately 1000 nM”. Also, the “Ranking according” value in the series with MCF-7 cells is reported as “IGF-1>X10>HI”. The “Effect on blood glucose” value in series [2] was “rapidly lowered blood glucose”. Moreover, the “Time until blood glucose returned” value in series [2] was in the range of 3 to 4 h.
With insulin analog B10Asp [X10], the “Tumor end volume, fold change relative to vehicle” value with MC38 cell allografts (setting [3]) is 1.5 ^* fold; in the series on MC38 cell allografts (setting [7]), 1.0 fold; in the series on MC38 cell allografts (setting [9]), 1.7 fold; in the series with MC38 cell allografts (setting [5]), 2.0 ^* fold; with MC38 cell allografts (setting [6]), 1.9 fold; in the series with MC38 cell allografts (setting [10]), 1.3 fold. Besides, the “Tumor end volume, mean” value was 500.5 mm^3 with MC38 cell allografts (setting [3]); 500.7 mm^3 in the series with MC38 cell allografts (setting [8]); 558.4 mm^3 in the series on MC38 cell allografts (setting [9]); 646.8 mm^3 in the series with MC38 cell allografts (setting [5]); 345.8 mm^3 in the series with MC38 cell allografts (setting [6]); 427.0 mm^3 with MC38 cell allografts (setting [10]). Further, the “AUC tumor growth, fold change relative to vehicle” value in the series with MC38 cell allografts (setting [4]) is on record as 1.5 ^* fold; in the series on MC38 cell allografts (setting [7]) it was 0.9 fold; in the series on MC38 cell allografts (setting [9]), 1.8 fold; with MC38 cell allografts (setting [5]), 1.8 ^* fold; in the series on MC38 cell allografts (setting [6]) it was 1.6 fold; with MC38 cell allografts (setting [10]), 1.4 fold. In addition, the “AUC tumor growth, mean” value was 1851.9 day × mm^3 in the series with MC38 cell allografts (setting [4]); 1880.9 day × mm^3 in the series on MC38 cell allografts (setting [7]); 2167.5 day × mm^3 in the series on MC38 cell allografts (setting [9]); 2060.9 day × mm^3 in the series with MC38 cell allografts (setting [5]); 1394.4 day × mm^3 in the series with MC38 cell allografts (setting [6]); 1836.1 day × mm^3 in the series on MC38 cell allografts (setting [10]). Also, in series [1] (mouse, in vivo, sc), the “Cmax relative to plasma concentrations of endogenous mouse insulin in hyperinsulinemic DIO-mice” value was “approximately 1000 fold”. Besides, the “Plasma elimination half-life (t½)” value in series [1] (mouse, in vivo, sc) is “approximately 30 min”. Besides, in series [1] (mouse, in vivo, sc), the “Time of maximal plasma concentration” value is listed as 15 min. The “Ranking according” value in the series on MCF-7 cells was “IGF-1>X10>HI”. The “Effect on blood glucose” value in series [2] is “rapidly lowered blood glucose”. Moreover, the “Time until blood glucose returned” value in series [2] lay within 3 to 4 h.
